Measured values: patent US7637980B2, “Method of increasing photosynthesis in plants comprising an exposure thereof to lipochitooligosaccharides and compositions therefor” (McGill University, priority 1999, dated 2009)

Tests used:
Assay type in all cases: in vivo
[1] = test system: melon (Cucumis melo cv Nova); test: Photosynthesis of melon after LCO spray, greenhouse
Procedure: (§1) Seeds of rice (Oryza sativa cv Cypress), canola (Brassica napus cv Springfield), corn (Zea mays cv Pioneer 3921) and melon (Cucumis melo cv Nova) were surface sterilized with 2% sodium hypochlorite for 3-4 min, washed with several changes of sterile distilled water and planted in plastic pots (15 cm dia) containing promix (Premier Brands Inc., New Rochelle, N.Y., USA).
(§2) Concentrations of LCO (10^−6 M-10^−12 M) were made with distilled water containing 0.02% Tween 20. A control treatment, containing 0.02% Tween 20, but no LCO was also applied. Since the rates of growth and development differed among the plant species used in the experiments, spray treatment was conducted at different times after planting In general, the spray was applied when the plants were big enough to allow easy measurements of leaf photosynthetic rates. The following are the ages of the plants when the sprays were conducted: soybean 21 days after planting (DAP), corn 25 DAP, rice 45 DAP, melon (35 DAP) and canola 30 DAP. The plants were sprayed with LCO solutions until dripping. The sprays were applied with an atomizer (Nalgene, USA). Each plant required 2-3 mL of spray solution. Each treatment was replicated at least five times and organized on the green house bench in a randomized complete block design. Each experiment (with each crop species) was repeated at least twice.
(§3) Photosynthesis was recorded every 24 h using a Li-Cor 6400 portable photosynthesis system (Li-Cor Inc., Lincoln, Neb., USA) for 6 days. In the case of soybean the photosynthesis in the second nodal leaf from the top was recorded while in the other species used in the photosynthetic rate was measured for the top-most fully expanded leaf. Soybean plants were harvested after seven days of LCO treatment and dried at 80° C. for 48 h. Data were analyzed with the Statistical Analysis System (SAS Inc., N.C., USA). Percent increase in photosynthesis over the control was calculated.

[2] = test system: soybean (cv Bayfield); test: Photosynthesis of soybean after LCO foliar spray, greenhouse
Procedure: Soybean (cv Bayfield) seeds were surface sterilized with 2% sodium hypochlorite for 3-4 minutes, washed with several changes of sterile distilled water and germinated in plastic trays containing sterile vermiculite. Seedlings at the two-leaf stage, about seven days of planting, were transplanted into 15 cm plastic pots containing promix (Premier Brands Inc., New Rochelle, N.Y., USA). Pots were placed in a greenhouse maintained at 25±2° C. with a day/night cycle of 16/8 h. Plants were watered as required.
as §2, §3

[3] = test system: soybean (cv OAC Bayfield); test: Growth and yield of soybean under field conditions (1999)
Procedure: The soybean experiment was conducted at the Lods Agronomy Research Centre, McGill University, Macdonald Campus, Ste-Anne-de-Bellevue, Quebec, Canada during the period June to September, 1999. A randomized complete block design with three blocks was followed. The plot size was 2×4 m with a row to row spacing of 25 cm and 10 cm between plants within a row. Seeds of soybean (cv OAC Bayfield), treated with commercial Bradyrhizobium japonicum inoculant (Bios Agriculture Inc., Quebec, Canada) at the rate of 3 g per kilogram of seed, were hand planted.
At 25 days after planting twenty plants in each plot were randomly marked and sprayed until dripping with LCO solutions (10^−6, 10^−8 and 10^−10M) containing 0.02% Tween 20 with a hand sprayer. The plants on either side, within the row, of the marked plants were also sprayed. A second spray was carried out at flowering stage and a third spray at pod filling.
As with the indoor experiments, photosynthetic readings were taken every day for five days after the application of LCO. For soybean additional developmental and agronomic data were collected. The first harvest was conducted at 25 days after the first spray treatment. Five plants were harvested from each plot and the following growth variables were analyzed: plant height, number of branches, number of leaves, leaf area, number of flower clusters, number of pods, number of nodules, dry weights of leaves, stem and roots. The final harvest was conducted after physiological maturity of the plants (Fehr et al., 1971); at this time the remaining fifteen treated plants from each plot were harvested and data on number of branches, number of pods, number of seeds and grain yield per plant was collected.

[4] = test system: corn (Zea mays cv Pioneer 3921); test: Photosynthesis of corn after LCO spray, greenhouse
Procedure: as §1, §2, §3

In the case of Nod Bj V (C18:1, MeFeu), the “intercellular CO2 concentration” value [1] was “unaffected”, the stomatal conductance [1] was “increases” and the transpiration [1] was “increases”. The increase in photosynthesis ([1]; in general) was 10-20%, the photosynthesis ([2]; 10^−6 M, day 1 after treatment) was 14.9 μmol m^−2 sec^−1 and the photosynthesis ([2]; 10^−6 M, day 2 after treatment) was 12.1 μmol m^−2 sec^−1. It also gave a photosynthesis ([2]; 10^−6 M, day 4 after treatment) of 16.2 μmol m^−2 sec^−1, a photosynthesis ([2]; 10^−6 M, day 5 after treatment) of 16.7 μmol m^−2 sec^−1 and a photosynthesis ([2]; 10^−6 M, day 6 after treatment) of 13.1 μmol m^−2 sec^−1. It also gave a photosynthesis ([2]; 10^−7 M, day 1 after treatment) of 12.1 μmol m^−2 sec^−1, a photosynthesis ([2]; 10^−7 M, day 2 after treatment) of 9.1 μmol m^−2 sec^−1 and a photosynthesis ([2]; 10^−7 M, day 4 after treatment) of 12.9 μmol m^−2 sec^−1. It also gave a photosynthesis ([2]; 10^−7 M, day 5 after treatment) of 14.1 μmol m^−2 sec^−1, a photosynthesis ([2]; 10^−7 M, day 6 after treatment) of 11.1 μmol m^−2 sec^−1 and a photosynthesis ([2]; 10^−8 M, day 1 after treatment) of 13.8 μmol m^−2 sec^−1. For the same substance, the photosynthesis ([2]; 10^−8 M, day 2 after treatment) was 8.1 μmol m^−2 sec^−1, the photosynthesis ([2]; 10^−8 M, day 4 after treatment) was 12.3 μmol m^−2 sec^−1 and the photosynthesis ([2]; 10^−8 M, day 5 after treatment) was 16.4 μmol m^−2 sec^−1. For the same substance, the photosynthesis ([2]; 10^−8 M, day 6 after treatment) was 10.3 μmol m^−2 sec^−1, the photosynthesis ([2]; 10^−9 M, day 1 after treatment) was 15.8 μmol m^−2 sec^−1 and the photosynthesis ([2]; 10^−9 M, day 2 after treatment) was 8.4 μmol m^−2 sec^−1. The photosynthesis ([2]; 10^−9 M, day 4 after treatment) was 15.7 μmol m^−2 sec^−1, the photosynthesis ([2]; 10^−9 M, day 5 after treatment) was 17.5 μmol m^−2 sec^−1 and the photosynthesis ([2]; 10^−9 M, day 6 after treatment) was 11.2 μmol m^−2 sec^−1. The photosynthesis ([2]; 10^−10 M, day 1 after treatment) was 13.6 μmol m^−2 sec^−1, the photosynthesis ([2]; 10^−10 M, day 2 after treatment) was 8.7 μmol m^−2 sec^−1 and the photosynthesis ([2]; 10^−10 M, day 4 after treatment) was 14.6 μmol m^−2 sec^−1. The photosynthesis ([2]; 10^−10 M, day 5 after treatment) was 16.9 μmol m^−2 sec^−1, the photosynthesis ([2]; 10^−10 M, day 6 after treatment) was 11.2 μmol m^−2 sec^−1 and the photosynthesis ([2]; 10^−11 M, day 1 after treatment) was 14.0 μmol m^−2 sec^−1. For the same substance, the photosynthesis ([2]; 10^−11 M, day 2 after treatment) was 8.7 μmol m^−2 sec^−1, the photosynthesis ([2]; 10^−11 M, day 4 after treatment) was 17.4 μmol m^−2 sec^−1 and the photosynthesis ([2]; 10^−11 M, day 5 after treatment) was 17.9 μmol m^−2 sec^−1. For the same substance, the photosynthesis ([2]; 10^−11 M, day 6 after treatment) was 12.5 μmol m^−2 sec^−1, the photosynthesis ([2]; 10^−12 M, day 1 after treatment) was 15.0 μmol m^−2 sec^−1 and the photosynthesis ([2]; 10^−12 M, day 2 after treatment) was 10.3 μmol m^−2 sec^−1. It also gave a photosynthesis ([2]; 10^−12 M, day 4 after treatment) of 16.9 μmol m^−2 sec^−1, a photosynthesis ([2]; 10^−12 M, day 5 after treatment) of 17.0 μmol m^−2 sec^−1 and a photosynthesis ([2]; 10^−12 M, day 6 after treatment) of 12.0 μmol m^−2 sec^−1. The “increase in photosynthetic rate” value ([2]; LCO spray, greenhouse, on an average) was 50%, the “Leaf area/Plant” value ([3]; LCO 10^−6 M, field) was 2306.3 cm^2 and the “No. Branches/Plant” value ([3]; LCO 10^−6 M, field) was 4.2. For the same substance, the “No. Leaves/Plant” value ([3]; LCO 10^−6 M, field) was 29.4, the “No. Nodules/Plant” value ([3]; LCO 10^−6 M, field) was 63.5 and the “No. Pod clusters/Plant” value ([3]; LCO 10^−6 M, field) was 24.3. The “No. Pods/Plant” value ([3]; LCO 10^−6 M, field) was 42.9, the “No. seeds/Plant” value ([3]; LCO 10^−6 M, field) was 104.7 and the Plant height ([3]; LCO 10^−6 M, field) was 78.5 cm. For the same substance, the “Root Dry weight/plant” value ([3]; LCO 10^−6 M, field) was 3.0 gm, the “Seed yield/plant” value ([3]; LCO 10^−6 M, field) was 22.1 gm and the “Shoot dry weight/Plant” value ([3]; LCO 10^−6 M, field) was 24.7 gm. For the same substance, the “Leaf area/Plant” value ([3]; LCO 10^−8 M, field) was 2120.4 cm^2, the “No. Branches/Plant” value ([3]; LCO 10^−8 M, field) was 5.1 and the “No. Leaves/Plant” value ([3]; LCO 10^−8 M, field) was 25.4. The “No. Nodules/Plant” value ([3]; LCO 10^−8 M, field) was 84.6, the “No. Pod clusters/Plant” value ([3]; LCO 10^−8 M, field) was 24.8 and the “No. Pods/Plant” value ([3]; LCO 10^−8 M, field) was 42.4. The “No. seeds/Plant” value ([3]; LCO 10^−8 M, field) was 106.3, the Plant height ([3]; LCO 10^−8 M, field) was 85.8 cm and the “Root Dry weight/plant” value ([3]; LCO 10^−8 M, field) was 2.3 gm. For the same substance, the “Seed yield/plant” value ([3]; LCO 10^−8 M, field) was 21 gm, the “Shoot dry weight/Plant” value ([3]; LCO 10^−8 M, field) was 23.7 gm and the “Leaf area/Plant” value ([3]; LCO 10^−10 M, field) was 1513.1 cm^2. The “No. Branches/Plant” value ([3]; LCO 10^−10 M, field) was 3.4, the “No. Leaves/Plant” value ([3]; LCO 10^−10 M, field) was 22.2 and the “No. Nodules/Plant” value ([3]; LCO 10^−10 M, field) was 68.3. The “No. Pod clusters/Plant” value ([3]; LCO 10^−10 M, field) was 28.3, the “No. Pods/Plant” value ([3]; LCO 10^−10 M, field) was 48.0 and the “No. seeds/Plant” value ([3]; LCO 10^−10 M, field) was 118.1. For the same substance, the Plant height ([3]; LCO 10^−10 M, field) was 83.5 cm, the “Root Dry weight/plant” value ([3]; LCO 10^−10 M, field) was 2.3 gm and the “Seed yield/plant” value ([3]; LCO 10^−10 M, field) was 22.6 gm. The “Shoot dry weight/Plant” value ([3]; LCO 10^−10 M, field) was 19.8 gm, the Plant height ([3]; field 1999, LCO treatment vs control) was “not affected” and the “grain yield enhanced by” value ([3]; field, spray at seedling, flowering and podfilling stages) was 33-44%. For the same substance, the “leaf internal CO2 concentration” value [4] was “decreased”, the stomatal aperture [4] was “did not significantly alter” and the increase in photosynthesis ([4]; in general) was 10-20%.
